Measurements published in patent US11999739B2, “Antimicrobials methods of making and using the same” (BIOVERSYS AG, priority 2016, dated 2024).

How the values were obtained:
[1] = system: Escherichia coli strain ATCC25922; assay: Standard microdilution MIC assay, E. coli; format: cell-based
Protocol: (§1) The in vitro activity of the compounds of the present disclosure can be determined. Antimicrobial testing is typically performed to determine the minimum inhibitory concentration (MIC). Minimum inhibitory concentrations (MICs) are determined by the microdilution method in a final volume of 100 μl according to protocols outlined by The Clinical and Laboratory Standards Institute (CLSI). Performance standards for reference strains are assessed within the same experimental design to maintain quality control. See, for example, Clinical Laboratory Standards Institute: Methods for dilution antimicrobial susceptibility tests for bacteria that grow aerobically M7-A8. Approved Standard-Eighth Edition. Wayne, PA: CLSI; December 2008; and Clinical Laboratory Standards Institute: Performance Standards for Antimicrobial Susceptibility Testing M100-S20; Approved Standard-Twentieth Edition. Wayne, PA: CLSI; June 2010.
(§2) The compounds of the present disclosure were tested for antimicrobial activity. The Compounds 1-293 were run against Escherichia coli (E co/i) strain ATCC25922 and against Staphylococcus aureus (S. aureus) 11540 strain using a standard microdilution assay to determine minimum inhibitory concentrations (MICs). […] It will be recognized by one skilled in the art that the compounds can be assessed against other bacterial organisms and that the presentation of data for activity against Escherichia coli and Staphylococcus aureus are illustrative and in no way is intended to limit the scope of the present disclosure. The compounds of the present disclosure can be assayed against a range of other microorganisms depending upon the performance activity desired to be gathered. Furthermore, the “+” and “−” representation and the selection of a cutoff value of 16 micrograms/mL is also illustrative and in no way is intended to limit the scope of the present disclosure.

[2] = system: Staphylococcus aureus (S. aureus) 11540 strain; assay: Standard microdilution MIC assay, S. aureus; format: cell-based
Protocol: as §1, §2

SMILES | MIC [1] [mg/L] | MIC [2] [mg/L]
C=C[C@@H](CCNC(=N)CCOCC)NCc1ccc(-n2cc3cc(-c4cc(CCC[C@H](C)N)cc(Cl)c4F)[nH]c3nc2=O)cc1 [Compound 52] | ≤ 16 | ≤ 16
C=C[C@@H](CCNC(=N)COC)NCc1ccc(-n2cc3cc(-c4cc(CCC[C@H](C)N)cc(Cl)c4F)[nH]c3nc2=O)cc1 [Compound 53] | ≤ 16 | ≤ 16
CC(=N)NCC[C@@H]1COC[C@@H](c2ccc(-n3cc4cc(-c5cc(CCC[C@@H](N)CO)cc(Cl)c5F)[nH]c4nc3=O)cc2)N1 [Compound 54] | ≤ 16 | ≤ 16
N=C(CF)NCC[C@@H]1COC[C@@H](c2ccc(-n3cc4cc(-c5cc(CCC[C@@H](N)CO)cc(Cl)c5F)[nH]c4nc3=O)cc2)N1 [Compound 55] | ≤ 16 | ≤ 16
C=C[C@@H](N)CCCc1cc(Cl)c(F)c(-c2cc3cn(-c4ccc([C@@H]5COC[C@@H](CCNC(C)=N)N5)cc4)c(=O)nc3[nH]2)c1 [Compound 56] | ≤ 16 | ≤ 16
C=C[C@@H](N)CCCc1cc(Cl)c(F)c(-c2cc3cn(-c4ccc([C@@H]5COC[C@@H](CCNC(=N)CF)N5)cc4)c(=O)nc3[nH]2)c1 [Compound 57] | ≤ 16 | ≤ 16
C=C[C@@H](CCNC(=N)CC(F)(F)F)NCc1ccc(-n2cc3cc(-c4cc(CCC[C@H](C)N)cc(Cl)c4F)[nH]c3nc2=O)cc1 [Compound 58] | ≤ 16 | ≤ 16
C=C[C@@H](CCNC(=N)CSC)NCc1ccc(-n2cc3cc(-c4cc(CCC[C@H](C)N)cc(Cl)c4F)[nH]c3nc2=O)cc1 [Compound 59] | ≤ 16 | ≤ 16
C=C[C@@H](CCNC(C)=N)NC(=O)c1ccc(-n2cc3cc(-c4cc(CCC[C@H](C)N)cc(Cl)c4F)[nH]c3nc2=O)cc1 [Compound 60] | ≤ 16 | ≤ 16
C[C@H](N)CCCc1cc(Cl)c(F)c(-c2cc3cn(-c4ccc(CN[C@@H](CO)CCNC(=N)CF)cc4)c(=O)nc3[nH]2)c1 [Compound 61] | ≤ 16 | ≤ 16
CC(=N)NCC[C@@H]1CCC[C@@H](c2ccc(-n3cc4cc(-c5cc(CCC[C@@H](N)C(F)(F)F)cc(Cl)c5F)[nH]c4nc3=O)cc2)N1 [Compound 63] | ≤ 16 | ≤ 16
N=C(CF)NCC[C@@H]1CCC[C@@H](c2ccc(-n3cc4cc(-c5cc(CCC[C@@H](N)C(F)(F)F)cc(Cl)c5F)[nH]c4nc3=O)cc2)N1 [Compound 64] | ≤ 16 | ≤ 16
CC(=N)NCCCNCc1ccc(-n2cc3cc(-c4cc(CCCC(C)(C)N)cc(Cl)c4F)[nH]c3nc2=O)cc1F [Compound 65] | ≤ 16 | ≤ 16
CC(=N)NCC[C@@H]1COC[C@@H](c2ccc(-n3cc4cc(-c5cc(CCC[C@@H](N)C(F)(F)F)cc(Cl)c5F)[nH]c4nc3=O)cc2)N1 [Compound 66] | > 16 | > 16
N=C(CF)NCC[C@@H]1COC[C@@H](c2ccc(-n3cc4cc(-c5cc(CCC[C@@H](N)C(F)(F)F)cc(Cl)c5F)[nH]c4nc3=O)cc2)N1 [Compound 67] | > 16 | > 16
CC(=N)NCC[C@@H]1COC[C@@H](c2ccc(-n3cc4cc(-c5cc(CCCC(C)(C)N)cc(Cl)c5F)[nH]c4nc3=O)cc2)N1 [Compound 68] | ≤ 16 | ≤ 16
CC(C)(N)CCCc1cc(Cl)c(F)c(-c2cc3cn(-c4ccc([C@@H]5COC[C@@H](CCNC(=N)CF)N5)cc4)c(=O)nc3[nH]2)c1 [Compound 69] | ≤ 16 | ≤ 16
C=C[C@@H](N)CCCc1cc(Cl)c(F)c(-c2cc3cn(-c4ccc(CNCCCNC(C)=N)c(F)c4)c(=O)nc3[nH]2)c1 [Compound 70] | ≤ 16 | ≤ 16

SMILES | MIC [1] [mg/L] | MIC [2] [mg/L]
CC(=N)NCC[C@@H]1COC[C@@H](c2ccc(-n3cc4cc(-c5cc(CCC(C)(C)CN)cc(Cl)c5F)[nH]c4nc3=O)cc2)N1 [Compound 71] | ≤ 16 | ≤ 16
CC(C)(CN)CCc1cc(Cl)c(F)c(-c2cc3cn(-c4ccc([C@@H]5COC[C@@H](CCNC(=N)CF)N5)cc4)c(=O)nc3[nH]2)c1 [Compound 72] | ≤ 16 | ≤ 16
CC(=N)NCCCNCc1ccc(-n2cc3cc(-c4cc(CCC(C)(C)CN)cc(Cl)c4F)[nH]c3nc2=O)cc1F [Compound 73] | ≤ 16 | ≤ 16
CC(C)(CN)CCc1cc(Cl)c(F)c(-c2cc3cn(-c4ccc(CNCCCNC(=N)CF)c(F)c4)c(=O)nc3[nH]2)c1 [Compound 74] | ≤ 16 | ≤ 16
C[C@H](N)CCCc1cc(Cl)c(F)c(-c2cc3cn(-c4ccc([C@@H]5COC[C@@H](CCNC(=N)CF)N5)cc4)c(=O)nc3[nH]2)c1 [Compound 75] | ≤ 16 | ≤ 16
CC(=N)NCCCNCc1ccc(-n2cc3cc(-c4cc(CCC[C@H](C)N)cc(Cl)c4F)[nH]c3nc2=O)cc1F [Compound 76] | ≤ 16 | ≤ 16
C[C@H](N)CCCc1cc(Cl)c(F)c(-c2cc3cn(-c4ccc(CNCCCNC(=N)CF)c(F)c4)c(=O)nc3[nH]2)c1 [Compound 77] | ≤ 16 | ≤ 16
CC(=N)NCC[C@@H]1CCC[C@@H](c2ccc(-n3cc4cc(-c5cc(CCC[C@@H](N)C6CC6)cc(Cl)c5F)[nH]c4nc3=O)cc2)N1 [Compound 78] | ≤ 16 | ≤ 16
CC(=N)NCC[C@H](CO)NCc1ccc(-n2cc3cc(-c4cc(CCC[C@@H](N)C5CC5)cc(Cl)c4F)[nH]c3nc2=O)cc1 [Compound 79] | ≤ 16 | ≤ 16
C=C[C@H](N)CCCc1cc(Cl)c(F)c(-c2cc3cn(-c4ccc([C@@H]5COC[C@@H](CCNC(C)=N)N5)cc4)c(=O)nc3[nH]2)c1 [Compound 80] | ≤ 16 | ≤ 16
C=C[C@H](N)CCCc1cc(Cl)c(F)c(-c2cc3cn(-c4ccc([C@@H]5COC[C@@H](CCNC(=N)CF)N5)cc4)c(=O)nc3[nH]2)c1 [Compound 81] | ≤ 16 | ≤ 16
C=C[C@H](N)CCCc1cc(Cl)c(F)c(-c2cc3cn(-c4ccc([C@@H]5CCC[C@@H](CCNC(C)=N)N5)cc4)c(=O)nc3[nH]2)c1 [Compound 82] | ≤ 16 | ≤ 16
C=C[C@H](N)CCCc1cc(Cl)c(F)c(-c2cc3cn(-c4ccc(CN[C@@H](CO)CCNC(C)=N)cc4)c(=O)nc3[nH]2)c1 [Compound 83] | ≤ 16 | ≤ 16
N=C(CF)NCC[C@H](CO)NCc1ccc(-n2cc3cc(-c4cc(CCC[C@@H](N)CO)cc(Cl)c4F)[nH]c3nc2=O)cc1 [Compound 84] | ≤ 16 | ≤ 16
N=C(CF)NCC[C@H](CO)NCc1ccc(-n2cc3cc(-c4cc(CCC[C@@H](N)C5CC5)cc(Cl)c4F)[nH]c3nc2=O)cc1 [Compound 85] | ≤ 16 | ≤ 16
N=C(CF)NCC[C@@H]1CCC[C@@H](c2ccc(-n3cc4cc(-c5cc(CCC[C@@H](N)C6CC6)cc(Cl)c5F)[nH]c4nc3=O)cc2)N1 [Compound 86] | ≤ 16 | ≤ 16
C=C[C@@H](CCNC(C)=N)NCc1ccc(-n2cc3cc(-c4cc(CCC[C@@H](N)C5CC5)cc(Cl)c4F)[nH]c3nc2=O)cc1 [Compound 87] | ≤ 16 | ≤ 16
CSC[C@@H](CCNC(=N)CF)NCc1ccc(-n2cc3cc(-c4cc(CCC[C@H](C)N)cc(Cl)c4F)[nH]c3nc2=O)cc1 [Compound 88] | ≤ 16 | ≤ 16
